Results reported in BindingDB's records for PubMed 38118394 (Second Military Medical University (Naval Medical …).
Peptide text beside a SMILES is read from it.

Each compound was assayed against Glypican-3 (Homo sapiens, UniProt P51654) (assay: Binding affinity to GPC3 (unknown origin) assessed as dissociation constant by fluorescence polarization assay).
Chain of Glypican-3 (P51654 25-358 limits assumed): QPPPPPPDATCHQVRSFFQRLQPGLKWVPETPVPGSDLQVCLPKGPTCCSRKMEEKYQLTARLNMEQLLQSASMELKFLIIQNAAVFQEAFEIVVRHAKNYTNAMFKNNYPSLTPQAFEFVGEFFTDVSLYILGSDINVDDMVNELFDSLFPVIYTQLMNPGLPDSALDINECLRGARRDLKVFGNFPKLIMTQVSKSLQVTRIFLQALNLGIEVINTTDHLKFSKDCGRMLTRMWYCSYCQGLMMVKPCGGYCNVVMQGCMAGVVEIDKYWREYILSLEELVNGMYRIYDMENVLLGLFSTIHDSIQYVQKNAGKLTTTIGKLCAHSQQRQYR
Chain of Glypican-3 (P51654 359-554 limits assumed): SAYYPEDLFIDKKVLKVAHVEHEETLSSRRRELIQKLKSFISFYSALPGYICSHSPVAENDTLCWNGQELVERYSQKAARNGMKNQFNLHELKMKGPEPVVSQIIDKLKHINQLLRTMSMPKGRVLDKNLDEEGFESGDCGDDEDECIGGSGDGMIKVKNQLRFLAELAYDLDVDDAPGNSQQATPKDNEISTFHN

Kd, 300 nM:
C=Cc1c(C)c2cc3nc(c(CC(=O)O)c4[nH]c(cc5nc(cc1[nH]2)C(C)=C5CC)c(C)c4C(=O)NCCCC(=O)N[C@@H](CC(=O)O)C(=O)N[C@@H](Cc1ccc(O)cc1)C(=O)N[C@@H](CCC(=O)O)C(=O)N[C@@H](CCSC)C(=O)N[C@@H](Cc1cnc[nH]1)C(=O)N[C@@H](CC(C)C)C(=O)N[C@@H](Cc1c[nH]c2ccccc12)C(=O)N[C@@H](Cc1c[nH]c2ccccc12)C(=O)NCC(=O)N[C@H](C(=O)N[C@@H](CCC(=O)O)C(=O)N[C@@H](CC(C)C)C(=O)O)[C@@H](C)O)[C@@H](CCC(=O)O)[C@@H]3C (HELM PEPTIDE1{[C=Cc1c(C)c2cc3nc(c(CC(=O)O)c4[nH]c(cc5nc(cc1[nH]2)C(C)=C5CC)c(C)c4C(=O)[*:2])[C@@H](CCC(=O)O)[C@@H]3C].[O=C(CCCN[*:1])[*:2]].D.Y.E.M.H.L.W.W.G.T.E.L}$$$$V2.0)
C=Cc1c(C)c2cc3nc(c(CC(=O)O)c4[nH]c(cc5nc(cc1[nH]2)C(C)=C5CC)c(C)c4C(=O)NCCCC(=O)N[C@@H](CCCCN)C(=O)N[C@@H](CCCCN)C(=O)N[C@@H](CCCCN)C(=O)N[C@@H](CCCNC(=N)N)C(=O)N[C@@H](CC(C)C)C(=O)N[C@@H](CC(N)=O)C(=O)N[C@H](C(=O)NCC(=O)NCC(=O)N[C@H](C(=O)N[C@@H](Cc1ccc(O)cc1)C(=O)N[C@@H](Cc1ccccc1)C(=O)N[C@@H](CC(C)C)C(=O)N[C@H](C(=O)N[C@H](C(=O)N[C@@H](CCCNC(=N)N)C(=O)N[C@@H](CCC(N)=O)C(=O)O)[C@@H](C)O)[C@@H](C)O)[C@@H](C)O)C(C)C)[C@@H](CCC(=O)O)[C@@H]3C (HELM PEPTIDE1{[C=Cc1c(C)c2cc3nc(c(CC(=O)O)c4[nH]c(cc5nc(cc1[nH]2)C(C)=C5CC)c(C)c4C(=O)[*:2])[C@@H](CCC(=O)O)[C@@H]3C].[O=C(CCCN[*:1])[*:2]].K.K.K.R.L.N.V.G.G.T.Y.F.L.T.T.R.Q}$$$$V2.0)
C=Cc1c(C)c2cc3nc(c(CC(=O)O)c4[nH]c(cc5nc(cc1[nH]2)C(C)=C5CC)c(C)c4C(=O)NCCCC(=O)N[C@@H](CCCNC(=N)N)C(=O)N[C@@H](CC(C)C)C(=O)N[C@@H](CC(N)=O)C(=O)N[C@H](C(=O)NCC(=O)NCC(=O)N[C@H](C(=O)N[C@@H](Cc1ccc(O)cc1)C(=O)N[C@@H](Cc1ccccc1)C(=O)N[C@@H](CC(C)C)C(=O)N[C@H](C(=O)N[C@H](C(=O)N[C@@H](CCCNC(=N)N)C(=O)N[C@@H](CCC(N)=O)C(=O)O)[C@@H](C)O)[C@@H](C)O)[C@@H](C)O)C(C)C)[C@@H](CCC(=O)O)[C@@H]3C (HELM PEPTIDE1{[C=Cc1c(C)c2cc3nc(c(CC(=O)O)c4[nH]c(cc5nc(cc1[nH]2)C(C)=C5CC)c(C)c4C(=O)[*:2])[C@@H](CCC(=O)O)[C@@H]3C].[O=C(CCCN[*:1])[*:2]].R.L.N.V.G.G.T.Y.F.L.T.T.R.Q}$$$$V2.0)
